From patent publication US20250059205A1, “Heterocyclic Compounds and Methods of Use” (AMGEN INC., priority 2021, published 2025)

How the values were obtained:
[1] = system: Phosphorylation of ERK1/2 in AsPC-1 cells; assay: Phospho-ERK1/2 MSD Assay (AsPC-1 cells); type: cell-based; conditions: Homo sapiens, ASPC1, 2 h, 2 hours treatment, read-out: p-ERK (AsPC-1 cells) IC50
Method in brief: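 Read-out: MSD electrochemiluminescent detection of phosphorylated ERK1/2 in whole-cell lysates, fitted to a 4-parameter logistic curve for IC50. Prior to lysis, AsPC-1 cells (25,000 per well) received a 2 h compound dose-response at 37 °C.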

[2] = biological target: GDP-bound KRAS protein (aa 1-169), containing both G12D and C118A amino acid substitutions (Homo sapiens, UniProt P01116, C118A/G12D); assay: KRAS G12D Coupled Nucleotide Exchange Assay; type: biochemical; conditions: 2 h compound pre-incubation
Description: Following compound pre-incubation, purified SOS protein (aa 564-1049) and GTP (Roche 10106399001) were added to the assay wells and incubated for an additional 30 min. […] The assay plates were then read on a PerkinElmer EnVision Multilabel Reader, using AlphaScreen® technology, and data were analyzed using a 4-parameter logistic model to calculate IC50 values.

[3] = biological target: His-tagged KRAS G12D protein (Homo sapiens, UniProt P01116, G12D); assay: KRAS G12D TR-FRET Assay; type: binding
[4] = system: Phosphorylation of ERK1/2 in A-427 cells; assay: Phospho-ERK1/2 MSD Assay (A-427 cells); type: cell-based; conditions: Homo sapiens, A-427, 2 h, 2 h treatment, read-out: p-ERK (A427 cells) IC50
Method in brief: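 ERK1/2 phosphorylation measured by Meso Scale whole-cell lysate assay after A-427 cells were exposed to a titration of compound for 2 h at 37 °C.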

Chain of His-tagged KRAS G12D protein (P01116 1-188 isoform P01116-2 G12D): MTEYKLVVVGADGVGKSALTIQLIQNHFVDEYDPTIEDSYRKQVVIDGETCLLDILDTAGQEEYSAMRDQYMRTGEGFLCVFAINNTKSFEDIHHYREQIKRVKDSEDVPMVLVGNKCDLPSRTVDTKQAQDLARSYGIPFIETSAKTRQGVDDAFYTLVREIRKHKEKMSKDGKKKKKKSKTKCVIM
Chain of GDP-bound KRAS protein (aa 1-169), containing both G12D and C118A amino acid substitutions (P01116 1-169 isoform P01116-2 G12D/C118A): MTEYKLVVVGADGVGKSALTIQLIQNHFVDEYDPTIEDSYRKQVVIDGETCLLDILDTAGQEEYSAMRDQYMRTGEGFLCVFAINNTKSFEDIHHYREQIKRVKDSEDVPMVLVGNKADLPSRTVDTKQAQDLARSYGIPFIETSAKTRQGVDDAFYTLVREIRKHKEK

Row | SMILES | IC50 [1] [nM] | Avg 2 h Coupled Exchange IC50 [2] [nM] | IC50 [3] [nM] | IC50 [4] [nM]
1 | Oc1cc(-c2ccc3c(N4C[C@@H]5CC[C@H]4CN5)nc(OC[C@@]45CCCN4C[C@H](F)C5)nc3c2F)c2ccccc2c1 [Example 45, 4-(4-((1S,4S)-2,5-diazabicyclo[2.2. 2]octan-2-yl)-8-fluoro-2-(((2R,7aS)-2-fluorotetrahydro-1H-pyrrolizin-7a(5H)-yl)methoxy)quinazolin-7-yl)naphthalen-2-ol] | 190 | 2 | 4 | 25
2 | Oc1cc(-c2ccc3c(N4C[C@H]5CC[C@@H](C4)N5)nc(OC[C@@]45CCCN4C[C@H](F)C5)nc3c2F)c2ccccc2c1 [Example 46, 4-(4-((1R,5S)-3,8-diazabicyclo[3.2. 1]octan-3-yl)-8-fluoro-2-(((2R,7aS)-2-fluorotetrahydro-1H-pyrrolizin-7a(5H)-yl)methoxy)quinazolin-7-yl)naphthalen-2-ol] | 39 | 2 | 2 | 6
3 | Oc1cc(-c2c(F)cc3c(N4C[C@@H]5CC[C@H]4CN5)nc(OC[C@@]45CCCN4C[C@H](F)C5)nc3c2F)c2ccccc2c1 [Example 48, 4-(4-((1S,4S)-2,5-diazabicyclo[2.2. 2]octan-2-yl)-6,8-difluoro-2-(((2R,7aS)-2-fluorotetrahydro-1H-pyrrolizin-7a(5H)-yl)methoxy)quinazolin-7-yl)naphthalen-2-ol] | 157 | 4 | 4 | 43
4 | Oc1cc(-c2c(F)cc3c(N4C[C@@H]5C[C@H]4CN5)nc(OC[C@@]45CCCN4C[C@H](F)C5)nc3c2F)c2ccccc2c1 [Example 49, 4-(4-((1S,4S)-2,5-diazabicyclo[2.2. 1]heptan-2-yl)-6,8-difluoro-2-(((2R,7aS)-2-fluorotetrahydro-1H-pyrrolizin-7a(5H)-yl)methoxy)quinazolin-7-yl)naphthalen-2-ol] | 3600 | 9 | 18 | 652
5 | Oc1cc(-c2ccc3c(N4C[C@@H]5C[C@H]4CN5)nc(OC[C@@]45CCCN4C[C@H](F)C5)nc3c2F)c2ccccc2c1 [Example 50, 4-(4-((1S,4S)-2,5-diazabicyclo[2.2. 1]heptan-2-yl)-8-fluoro-2-(((2R,7aS)-2-fluorotetrahydro-1H-pyrrolizin-7a(5H)-yl)methoxy)quinazolin-7-yl)naphthalen-2-ol] | 4470 | 7 | 11 | 1010
6 | Oc1cc(-c2c(Cl)cc3c(N4C[C@H]5CC[C@@H](C4)N5)nc(OC[C@]45CCCN4C[C@H](F)C5)nc3c2F)c2ccccc2c1 [Example 51, 4-(4-((1R,5S)-3,8-diazabicyclo[3.2. 1]octan-3-yl)-6-chloro-8-fluoro-2-(((2R,7aR)-2-fluorotetrahydro-1H-pyrrolizin-7a(5H)-yl)methoxy)quinazolin-7-yl)naphthalen-2-ol] | 185 | 1 | 3 | 136
7 | Oc1cc(-c2c(Cl)cc3c(N4C[C@H]5CC[C@@H](C4)N5)nc(OC[C@@]45CCCN4C[C@H](F)C5)nc3c2F)c2ccccc2c1 [Example 52, 4-(4-((1R,5S)-3,8-diazabicyclo[3.2. 1]octan-3-yl)-6-chloro-8-fluoro-2-(((2R,7aS)-2-fluorotetrahydro-1H-pyrrolizin-7a(5H)-yl)methoxy)quinazolin-7-yl)naphthalen-2-ol] | 107 | 3 | 3 | 41
8 | Oc1cc(-c2cc3nc(OC[C@@]45CCCN4C[C@H](F)C5)nc(N4[C@@H]5CC[C@H]4CNC5)c3cc2F)c2ccccc2c1 [Example 53, 4-(4-((1R,5S)-3,8-diazabicyclo[3.2. 1]octan-8-yl)-6-fluoro-2-(((2R,7aS)-2-fluorotetrahydro-1H-pyrrolizin-7a(5H)-yl)methoxy)quinazolin-7-yl)naphthalen-2-ol] | 919 | 3 | 16 | 608
9 | CCc1cccc2cccc(-c3ccc4c(N5C[C@H]6CC[C@@H](C5)N6)nc(OC[C@@]56CCCN5C[C@H](F)C6)nc4c3F)c12 [Example 54, 4-((1R,5S)-3,8-diazabicyclo[3.2. 1]octan-3-yl)-7-(8-ethylnaphthalen-1-yl)-8-fluoro-2-(((2R,7aS)-2-fluorotetrahydro-1H-pyrrolizin-7a(5H)-yl)methoxy) quinazoline] | 1220 | 3 | 4 | 795
10 | Fc1c(-c2cccc3cccc(Cl)c23)ccc2c(N3C[C@H]4CC[C@@H](C3)N4)nc(OC[C@@]34CCCN3C[C@H](F)C4)nc12 [Example 55, 4-((1R,5S)-3,8-diazabicyclo[3.2. 1]octan-3-yl)-7-(8-chloronaphthalen-1-yl)-8-fluoro-2-(((2R,7aS)-2-fluorotetrahydro-1H-pyrrolizin-7a(5H)-yl)methoxy) quinazoline] | 1660 | 7 | 8 | 1150
11 | Oc1cc(-c2ccc3c(N4C[C@H]5CC[C@@H](C4)N5)nc(OC[C@@]45CCCN4C[C@H](F)C5)nc3c2F)c2c(Cl)cccc2c1 [Example 56, 4-(4-((1R,5S)-3,8-diazabicyclo[3.2. 1]octan-3-yl)-8-fluoro-2-(((2R,7aS)-2-fluorotetrahydro-1H-pyrrolizin-7a(5H)-yl)methoxy)quinazolin-7-yl)-5-chloronaphthalen-2-ol] | 109 | 4 | 5 | 23
12 | Cc1c(-c2cc(O)cc3cccc(Cl)c23)ccc2c(N3C[C@H]4CC[C@@H](C3)N4)nc(OC[C@@]34CCCN3C[C@H](F)C4)nc12 [Example 57, 4-(4-((1R,5S)-3,8-diazabicyclo[3.2. 1]octan-3-yl)-2-(((2R,7aS)-2-fluorotetrahydro-1H-pyrrolizin-7a(5H)-yl)methoxy)-8-methylquinazolin-7-yl)-5-chloronaphthalen-2-ol] | 213 | 3 | 5 | 222
13 | CCc1c(F)ccc2cccc(-c3ccc4c(N5C[C@H]6CC[C@@H](C5)N6)nc(OC[C@@]56CCCN5C[C@H](F)C6)nc4c3C)c12 [Example 58, 4-((1R,5S)-3,8-diazabicyclo[3.2. 1]octan-3-yl)-7-(8-ethyl-7-fluoronaphthalen-1-yl)-2-(((2R,7aS)-2-fluorotetrahydro-1H-pyrrolizin-7a(5H)-yl)methoxy)-8-methylquinazolin] | 2460 | 5 | 6 | 4190
14 | CCc1cccc2cccc(-c3ccc4c(N5C[C@H]6CC[C@@H](C5)N6)nc(OC[C@@]56CCCN5C[C@H](F)C6)nc4c3C)c12 [Example 59, 4-((1R,5S)-3,8-diazabicyclo[3.2. 1]octan-3-yl)-7-(8-ethylnaphthalen-1-yl)-2-(((2R,7aS)-2-fluorotetrahydro-1H-pyrrolizin-7a(5H)-yl)methoxy)-8-methylquinazoline] | 4160 | 11 | 8 | 3380
15 | N#Cc1cccc2cccc(-c3c(F)cc4c(N5C[C@H]6CC[C@@H](C5)N6)nc(OC[C@@]56CCCN5C[C@H](F)C6)nc4c3F)c12 [Example 60, 8-(4-((1R,5S)-3,8-diazabicyclo[3.2. 1]octan-3-yl)-6,8-difluoro-2-(((2R,7aS)-2-fluorotetrahydro-1H-pyrrolizin-7a(5H)-yl)methoxy)quinazolin-7-yl)-1-naphthonitrile] | 418 | 4 | 8 | 530
16 | CC(C)(O)COc1nc(N2C[C@H]3CC[C@@H](C2)N3)c2cc(F)c(-c3cc(O)cc4ccccc34)c(F)c2n1 [Example 64, 4-(4-((1R,5S)-3,8-diazabicyclo[3.2. 1]octan-3-yl)-6,8-difluoro-2-(2-hydroxy-2-methylpropoxy)quinazolin-7-yl)naphthalen-2-ol] | 7030 | 17 | 51 | 5050
17 | CCc1c(F)ccc2cc(O)cc(-c3c(F)cc4c(N5C[C@H]6CC[C@@H](C5)N6)nc(OCC(C)(C)O)nc4c3F)c12 [Example 65, 4-(4-((1R,5S)-3,8-diazabicyclo[3.2. 1]octan-3-yl)-6,8-difluoro-2-(2-hydroxy-2-methylpropoxy)quinazolin-7-yl)-5-ethyl-6-fluoronaphthalen-2-ol] | 547 | 8 | 7 | 699
18 | CCc1cccc2cccc(-c3c(F)cc4c(N5C[C@H]6CC[C@@H](C5)N6)nc(OC[C@@]56CCCN5C[C@H](F)C6)nc4c3F)c12 [Example 68, 4-((1R,5S)-3,8-diazabicyclo[3.2. 1]octan-3-yl)-7-(8-ethylnaphthalen-1-yl)-6,8-difluoro-2-(((2R,7aS)-2-fluorotetrahydro-1H-pyrrolizin-7a(5H)-yl)methoxy) quinazoline] | 658 | 3 | 4 | 732
